In the NIST ThermoML archive (doi:10.1016/j.jct.2019.05.005):
± gives the expanded uncertainty stated by the source.

Details: Liquid; Ebulliometric method (Recirculating still)
In the case of `CCC(C)OC(C)=O` (centres undefined) [1-methylpropyl ethanoate], the Normal boiling temperature is reported as 112.18 ± 1 °C.
Work on `CC(=O)N(C)C` [N,N-dimethylethanamide] yielded a Normal boiling temperature of 165.80 ± 1 °C.
`CCC(C)O` (centres undefined) [butan-2-ol] showed a Normal boiling temperature of 99.48 ± 1 °C.
For `C[S+](C)[O-]` [dimethyl sulfoxide], the Normal boiling temperature was 190.02 ± 1 °C.
